Where no end group is shown, it is not given here.
target: DRB1*0401 (DR4w4) (Homo sapiens, UniProt P01903+P01911, A100K/A169T/F76Y/I96L/K127E/L162R/M171V/N62H/P40V/Q125Y/R42H/S133A/S149N/S66Y/V115G/V209L/W38E); assay: HLA class II binding assay, purified HLA molecules; details: Her2/neu DR supertype primary binding, Table XXVIII

Compound | IC50 [nM]
CC[C@H](C)[C@H](NC(=O)[C@H](CCC(=O)O)NC(=O)[C@@H](N)CCCCN)C(=O)N[C@@H](CC(C)C)C(=O)N[C@@H](CC(=O)O)C(=O)N[C@@H](CCC(=O)O)C(=O)N[C@@H](C)C(=O)N[C@@H](Cc1ccc(O)cc1)C(=O)N[C@H](C(=O)N[C@@H](CCSC)C(=O)N[C@@H](C)C(=O)NCC(=O)N[C@H](C(=O)NCC(=O)N[C@@H](CO)C(=O)O)C(C)C)C(C)C [Her2/neu.765] | 6160
CC[C@H](C)[C@H](NC(=O)[C@H](CCSC)NC(=O)[C@H](Cc1c[nH]c2ccccc12)NC(=O)[C@H](CS)NC(=O)[C@H](CCCCN)NC(=O)[C@@H](NC(=O)[C@H](CCSC)NC(=O)[C@@H](NC(=O)[C@H](CCSC)NC(=O)[C@H](Cc1ccc(O)cc1)NC(=O)[C@@H](NC(=O)[C@@H](N)CC(=O)O)C(C)C)[C@@H](C)CC)C(C)C)C(=O)N[C@@H](CC(=O)O)C(=O)N[C@@H](CO)C(=O)N[C@@H](CCC(=O)O)C(=O)O [Her2/neu.950] | 790

target: DRB1*0101 (DR1) (Homo sapiens, UniProt P01903+P01911, A100R/D57E/F55L/F60I/F76Y/I96L/L162R/M171V/P40L/Q125E/R42F/V115G/Y59C); assay: HLA class II binding assay, purified HLA molecules; details: Her2/neu DR supertype primary binding, Table XXVIII

Compound | IC50 [nM]
CC[C@H](C)[C@H](NC(=O)CNC(=O)[C@@H](NC(=O)[C@@H](NC(=O)[C@H](C)NC(=O)[C@H](CO)NC(=O)[C@@H](NC(=O)[C@@H](NC(=O)[C@H](CO)NC(=O)[C@@H](NC(=O)[C@@H](N)CC(C)C)[C@@H](C)O)[C@@H](C)CC)[C@@H](C)CC)C(C)C)C(C)C)C(=O)N[C@@H](CC(C)C)C(=O)N[C@@H](CC(C)C)C(=O)N[C@H](C(=O)N[C@H](C(=O)O)C(C)C)C(C)C [Her2/neu.651] | 26
CC[C@H](C)[C@H](NC(=O)[C@H](C)NC(=O)[C@@H](NC(=O)[C@@H]1CCCN1C(=O)[C@@H](NC(=O)[C@H](CCCCN)NC(=O)[C@@H](NC(=O)[C@H](CC(N)=O)NC(=O)[C@H](CCC(=O)O)NC(=O)CN)C(C)C)[C@@H](C)CC)C(C)C)C(=O)N[C@@H](CCCCN)C(=O)N[C@H](C(=O)N[C@@H](CC(C)C)C(=O)N[C@@H](CCCNC(=N)N)C(=O)N[C@@H](CCC(=O)O)C(=O)O)C(C)C [Her2/neu.743] | 79
LLVVVLGVVFGILIK [Her2/neu.662] | > 6250
DMKLRLPASPETHLD [Her2/neu.30] | 5000
ETELVEPLTPSGAMP [Her2/neu.693] | 833
QPDVRPQPPSPREGP [Her2/neu.1142] | 7140
CC[C@H](C)[C@H](NC(=O)[C@H](CCC(N)=O)NC(=O)[C@H](CCSC)NC(=O)[C@H](CS)NC(=O)[C@H](Cc1c[nH]c2ccccc12)NC(=O)[C@H](CC(N)=O)NC(=O)[C@H](CC(C)C)NC(=O)[C@@H](N)CC(C)C)C(=O)N[C@@H](C)C(=O)N[C@@H](CCCCN)C(=O)NCC(=O)N[C@@H](CCSC)C(=O)N[C@@H](CO)C(=O)N[C@@H](Cc1ccc(O)cc1)C(=O)N[C@@H](CC(C)C)C(=O)O [Her2/neu.822] | 6
CC[C@H](C)[C@H](NC(=O)CNC(=O)[C@H](CC(=O)O)NC(=O)[C@H](Cc1ccc(O)cc1)NC(=O)[C@@H]1CCCN1C(=O)[C@H](CCCCN)NC(=O)[C@H](C)NC(=O)CNC(=O)[C@H](Cc1ccccc1)NC(=O)[C@@H](NC(=O)[C@H](CCSC)NC(=O)[C@H](CC(C)C)NC(=O)[C@H](CCC(=O)O)NC(=O)[C@H](Cc1c[nH]c2ccccc12)NC(=O)[C@@H](N)C(C)C)[C@@H](C)O)C(=O)O [Her2/neu.912] | 58
CC[C@H](C)[C@H](NC(=O)CNC(=O)[C@@H](NC(=O)[C@@H](NC(=O)[C@H](C)NC(=O)[C@H](CO)NC(=O)[C@@H](NC(=O)[C@@H](NC(=O)[C@H](CO)NC(=O)[C@@H](NC(=O)[C@H](CC(C)C)NC(=O)[C@@H]1CCCN1C(=O)[C@H](CO)NC(=O)[C@H](C)N)[C@@H](C)O)[C@@H](C)CC)[C@@H](C)CC)C(C)C)C(C)C)C(=O)N[C@@H](CC(C)C)C(=O)O [Her2/neu.648] | 56
ITDFGLARLLDIDET [Her2/neu.861] | 1040
CSCC[C@H](NC(=O)[C@H](CC(C)C)NC(=O)[C@H](CCC(N)=O)NC(=O)[C@@H](NC(=O)[C@@H](NC(=O)[C@H](CC(C)C)NC(=O)[C@H](CCC(N)=O)NC(=O)[C@@H](NC(=O)[C@@H](N)[C@@H](C)O)C(C)C)C(C)C)[C@@H](C)O)C(=O)N1CCC[C@H]1C(=O)N[C@@H](Cc1ccc(O)cc1)C(=O)NCC(=O)N[C@@H](CS)C(=O)N[C@@H](CC(C)C)C(=O)N[C@@H](CC(C)C)C(=O)O [Her2/neu.793] | 22
VEPLTPSGAMPNQAQ [Her2/neu.697] | > 6250
CC[C@H](C)[C@H](NC(=O)[C@H](CCCCN)NC(=O)[C@H](CCCCN)NC(=O)[C@@H](N)CS)C(=O)N[C@@H](Cc1ccccc1)C(=O)NCC(=O)N[C@@H](CO)C(=O)N[C@@H](CC(C)C)C(=O)N[C@@H](C)C(=O)N[C@@H](Cc1ccccc1)C(=O)N[C@@H](CC(C)C)C(=O)N1CCC[C@H]1C(=O)N[C@@H](CCC(=O)O)C(=O)N[C@@H](CO)C(=O)N[C@@H](Cc1ccccc1)C(=O)O [Her2/neu.367] | 21
CC(C)C[C@H](NC(=O)[C@H](C)NC(=O)[C@H](Cc1ccc(O)cc1)NC(=O)[C@H](CC(N)=O)NC(=O)[C@H](CC(=O)O)NC(=O)[C@H](CCC(=O)O)NC(=O)[C@H](Cc1ccccc1)NC(=O)[C@H](CC(C)C)NC(=O)[C@H](CCC(N)=O)NC(=O)[C@@H](N)[C@@H](C)O)C(=O)N[C@@H](C)C(=O)N[C@H](C(=O)N[C@@H](CC(C)C)C(=O)N[C@@H](CC(=O)O)C(=O)N[C@@H](CC(N)=O)C(=O)O)C(C)C [Her2/neu.105] | 94

target: A*0101 (Homo sapiens, UniProt P04439, A114D/A174V/A182V/D101N/D185E/E176A/E190D/L180R/Q94H/R68K/S129P/T187R/V100A/V91M/W191G); assay: HLA class I binding assay, purified HLA molecules, inhibition of 125I-radiolabeled probe peptide; details: HLA-A1 Motif-Bearing Peptides, Table XXV

Compound | IC50 [nM]
VFETLEEITGY [Her2/neu.399] | 5560
HTDMLRHLY [Her2/neu.42.T2] | 1.9
GTDLFEDNY [Her2/neu.104.D3] | 0.9
GTDMKLRLPY [Her2/neu.28.Y10] | 50
CC(C)[C@H](N)C(=O)N[C@H](C(=O)N[C@@H](C)C(=O)N[C@@H](CS)C(=O)N1CCC[C@H]1C(=O)N[C@@H](Cc1ccc(O)cc1)C(=O)N[C@@H](CC(N)=O)C(=O)N[C@@H](Cc1ccc(O)cc1)C(=O)O)[C@@H](C)O [Her2/neu.296] | 250
ETHLDMLRHLY [Her2/neu.40] | 89
ETMPNPEGRY [Her2/neu.280.T2] | 3.9

target: DRB1*0701 (DR7) (Homo sapiens, UniProt P01903+P01911, A100R/A102G/A103Q/D57E/D86V/E43K/F76Y/K127E/L162R/M171V/P40G/Q125H/Q99D/R33Q/R42Y/R54Q/S133A/S66F/T210M/V115G/Y107V/Y59L/Y89S); assay: HLA class II binding assay, purified HLA molecules; details: Her2/neu DR supertype primary binding, Table XXVIII

Compound | IC50 [nM]
CC[C@H](C)[C@H](NC(=O)[C@H](CCC(N)=O)NC(=O)[C@H](CCSC)NC(=O)[C@H](CS)NC(=O)[C@H](Cc1c[nH]c2ccccc12)NC(=O)[C@H](CC(N)=O)NC(=O)[C@H](CC(C)C)NC(=O)[C@@H](N)CC(C)C)C(=O)N[C@@H](C)C(=O)N[C@@H](CCCCN)C(=O)NCC(=O)N[C@@H](CCSC)C(=O)N[C@@H](CO)C(=O)N[C@@H](Cc1ccc(O)cc1)C(=O)N[C@@H](CC(C)C)C(=O)O [Her2/neu.822] | 208
CSCC[C@H](NC(=O)[C@H](CC(C)C)NC(=O)[C@H](CCC(N)=O)NC(=O)[C@@H](NC(=O)[C@@H](NC(=O)[C@H](CC(C)C)NC(=O)[C@H](CCC(N)=O)NC(=O)[C@@H](NC(=O)[C@@H](N)[C@@H](C)O)C(C)C)C(C)C)[C@@H](C)O)C(=O)N1CCC[C@H]1C(=O)N[C@@H](Cc1ccc(O)cc1)C(=O)NCC(=O)N[C@@H](CS)C(=O)N[C@@H](CC(C)C)C(=O)N[C@@H](CC(C)C)C(=O)O [Her2/neu.793] | 2500
CSCC[C@H](NC(=O)[C@H](CC(C)C)NC(=O)[C@H](CCC(=O)O)NC(=O)[C@H](Cc1c[nH]c2ccccc12)NC(=O)[C@@H](NC(=O)[C@@H](NC(=O)[C@@H](NC(=O)CN)C(C)C)[C@@H](C)O)C(C)C)C(=O)N[C@H](C(=O)N[C@@H](Cc1ccccc1)C(=O)NCC(=O)N[C@@H](C)C(=O)N[C@@H](CCCCN)C(=O)N1CCC[C@H]1C(=O)N[C@@H](Cc1ccc(O)cc1)C(=O)O)[C@@H](C)O [Her2/neu.909] | 1470
CC(C)C[C@H](NC(=O)[C@H](C)NC(=O)[C@H](Cc1ccc(O)cc1)NC(=O)[C@H](CC(N)=O)NC(=O)[C@H](CC(=O)O)NC(=O)[C@H](CCC(=O)O)NC(=O)[C@H](Cc1ccccc1)NC(=O)[C@H](CC(C)C)NC(=O)[C@H](CCC(N)=O)NC(=O)[C@@H](N)[C@@H](C)O)C(=O)N[C@@H](C)C(=O)N[C@H](C(=O)N[C@@H](CC(C)C)C(=O)N[C@@H](CC(=O)O)C(=O)N[C@@H](CC(N)=O)C(=O)O)C(C)C [Her2/neu.105] | 1560

target: A*2402 (Homo sapiens, UniProt P04439, D101N/D140Y/D185E/E176V/E190D/F33S/G103R/G107R/I119L/I121M/I306V/K335N/L105A/L180Q/L300P/N151K/N90K/Q86E/Q94H/R106L/R138H/R89G/T104I/T345S/V100E/W191G/Y123F); assay: HLA class I binding assay, purified HLA molecules; details: HLA-A24 Motif-Bearing Peptides, Table XXVI

Compound | IC50 [nM]
AYPDSLPDF [Herw/neu414.Y2F9] | 24
AYSLTLQGF [Her2/neu.440.F9] | 52
CYGLGMEHF [Her2/neu.342.F9] | 164
AYSLTLQGL [Her2/neu.440] | 92
LYISAWPDSF [Her2/neu,410.F10] | 10
LYISAWPDSL [Her2/neu.410] | 143
CC[C@H](C)[C@H](NC(=O)[C@@H]1CCCN1C(=O)[C@H](CCSC)NC(=O)[C@H](Cc1ccc(O)cc1)NC(=O)[C@@H](N)CO)C(=O)N[C@@H](Cc1c[nH]c2ccccc12)C(=O)N[C@@H](CCCCN)C(=O)N[C@@H](Cc1ccccc1)C(=O)O [Her2/neu.609] | 38
TYLPTNASF [Her2/neu.63.F9] | 44

Reference: patent publication EP1568373A2, “Inducing cellular immune responses to HER2/neu using peptide and nucleic acid compositions” (priority 1999, dated 2001)
